The values that follow come from US8119614B2, “Substitution derivatives of N6-benzyladenosine, methods of their preparation, their use for preparation of drugs, cosmetic preparations and growth regulators, pharmaceutical preparations, cosmetic preparations and growth regulators containing these compounds” (Ustav Experimentalni Botaniky Akademie Ved Ceske Republiky, priority 2002, dated 2012).

One assay relates to Rosa hybrida ‘Pailin’. The experiment in a line: Early shoot senescence inhibition of tissue cultured roses. Type of assay: in vivo. The conditions noted are these: 10 μM in medium. The protocol:
Rosa hybrida ‘Pailin’ (a cut rose) was cultured in 350 ml vessels with a screw on polycarbonate lid. Each culture vessel contained 100 ml autoclaved medium (120° C., 20 min). The cultures were maintained at 23±2° C. under a 16 h photoperiod at […] m^−2 s^−1 PAR. The basal medium (MBR) contained Murashige and Skoog (1962) macroelements, microelements and vitamins, 36.7 mg/l NaFeEDTA, 50 mg/l NaFeEDDHA, […], 30 g/l sucrose, 100 mg/l glycine, 50 mg/l calcium pantothenate, 100 mg/l L-glutamine and 7 g/l agar-agar. This medium was supplemented with 10 μM of the tested cytokinin. New cytokinins were filter sterilised and added after autoclaving the medium in the vessels. 6-Benzylaminopurine (BAP) was used as a standard compound; the control medium didn't contain any cytokinin. After a culture period of 6 weeks, scoring senescence symptoms was started.

A further assay has as its system HL-60 cells. The experiment in a line: Induction of apoptosis in HL-60 cells (nuclear morphology, DNA fragmentation). Type of assay: cell-based, human. The conditions noted are these: 24 h (FIG. 5-7). As to the method:
Cell culture. A suspension of human promyelocytic HL-60 cells was cultured in RPMI-1640 medium supplemented with a 10% calf foetal serum and antibiotics in 5% CO2 atmosphere at 37° C. Cells were maintained at density from 1×10^5 to 6×10^5 cells per ml. HL-60 cells were obtained from ECACC.
Morphological analysis of cell nuclei. Cells were harvested, washed in PBS, and fixed in an ice-cold methanol+acetic acid (3:1) fixation mixture. Aliquots of cells were spread on glass slides and stained with Hoechst 33342 (2 μg/ml) in PBS. The morphology of cell nuclei was examined by a fluorescence microscope (Mlejnek and Kuglik 2000).
DNA fragmentation assay. Aliquots of cells were washed in PBS and lysed by addition of DNA lysis buffer (50 mM Tris/HCl, pH=8.0, 10 mM EDTA, 0.5% sodium lauroyl sarcosine, and 0.5 mg/ml proteinase K) at 37° C. overnight. Samples were treated further with DNase-free RNase-A (0.2 mg/ml) at 37° C. for 3 h. The resulting extracts were loaded onto 1.8% agarose gel containing ethidium bromide (Mlejnek and Kuglik 2000).

The subject of the next assay is caspase-9. As to the kind of experiment: Caspase protease activity measurement in cell extracts, caspase-9. Type of assay: cell-based, human. As to conditions: 20 μM, substrate Ac-LEHD-AFC (FIG. 9). The protocol: Caspase protease activity measurement. Cells were washed in PBS and then extracted in buffer [50 mM HEPES, pH 7.4, 1 mM EDTA, 0.1% Chaps, 5 mM DTT, and proteinase inhibitor cocktail (Roche)] on ice. Cell extracts were centrifuged for 30 min at 30 000×g at 4° C. Clarified extract were immediately analysed or stored at −80° C. […] The assay was carried out in 1 ml tubes, aliquots of lysates (200-300 μg of total protein) were mixed with 1 ml of buffer (25 mM PIPES/KOH, 2 mM EGTA, 5 mM DTT, and 0.1% Chaps, pH 7.3) and reactions were initiated by adding 50 μM substrate. Samples were incubated for 1 hour at 30° C. before the fluorescence was determined. Excitation and emission wavelengths were the same for both substrates (380 nm and 445 nm, respectively).

The next assay relates to caspase-3. The experiment in a line: Caspase protease activity measurement in cell extracts, caspase-3. Type of assay: cell-based, human. As to conditions: 20 μM, substrate Ac-DEVD-AMC (FIG. 9). The protocol: Caspase protease activity measurement. Cells were washed in PBS and then extracted in buffer [50 mM HEPES, pH 7.4, 1 mM EDTA, 0.1% Chaps, 5 mM DTT, and proteinase inhibitor cocktail (Roche)] on ice. Cell extracts were centrifuged for 30 min at 30 000×g at 4° C. Clarified extract were immediately analysed or stored at −80° C. Measurement of proteolytic activity was done using synthetic fluorogenic substrates Ac-DEVD-AMC and Ac-LEHD-AMC for caspase-3 and -9, respectively. The assay was carried out in 1 ml tubes, aliquots of lysates (200-300 μg of total protein) were mixed with 1 ml of buffer (25 mM PIPES/KOH, 2 mM EGTA, 5 mM DTT, and 0.1% Chaps, pH 7.3) and reactions were initiated by adding 50 μM substrate. Samples were incubated for 1 hour at 30° C. before the fluorescence was determined. Excitation and emission wavelengths were the same for both substrates (380 nm and 445 nm, respectively).

For the compound `COc1cccc(CNc2ncnc3c2ncn3[C@@H]2O[C@H](CO)[C@@H](O)[C@H]2O)c1` [3-methoxybenzylamino, 6-(3-methoxybenzylamino)purine riboside], the “senescence / dying of rose explants (in words)” value in the assay on Rosa hybrida ‘Pailin’ (listed as 3MeOBAPR) is “Even after 121 days almost all plants were still alive”; with Rosa hybrida ‘Pailin’ (listed as mMeOBAPR), “vigorous Rosa plantlet after 121 days of cultivation”.
For `COc1cccc(CNc2ncnc3c2ncn3[C@@H]2O[C@H](CO)[C@@H](O)[C@H]2O)c1O` [2-hydroxy-3-methoxybenzylamino, 6-(2-hydroxy-3-methoxybenzylamino)purine riboside], the “induction of HL-60 cell death / apoptosis” value in the assay on HL-60 cells is “induce HL-60 cell death, with typical morphological and biochemical characteristics of apoptosis”. Besides, the “activation of caspase-9” value with caspase-9 is “activate caspase proteases, especially caspase-9 and -3”. Moreover, the “activation of caspase-3” value with caspase-3 was “activate caspase proteases, especially caspase-9 and -3”.
